# Results: ChEMBL document CHEMBL1122542, “A 1H NMR study of the interactions and conformations of rationally designed brodimoprim analogues in complexes with Lactobacillus casei dihydrofolate reductase” (J Med Chem, 1984)
# Columns and labels:
# Dihydrofolate reductase [1] = target: T1, Dihydrofolate reductase (Lactobacillus casei, UniProt P00381); assay: Inhibition constant of compound against Lactobacillus casei Dihydrofolate reductase; set-up: species or system Lacticaseibacillus casei
# [2] = target: Dihydrofolate reductase (Lactobacillus casei) (UniProt P00381); settings: Lacticaseibacillus casei
# Description: Tested for pK value of histidine residue(His-28) of Dihydrofolate reductase from Lactobacillus casei
# [3] = target: Dihydrofolate reductase (Lactobacillus casei) (UniProt P00381); assay: Tested for pK value of histidine residue(His-28) of dihydrofolate reductase from Lactobacillus casei; assay type: functional; settings: Lacticaseibacillus casei
# Dihydrofolate reductase [4] = target: T1, Dihydrofolate reductase; assay: Inhibition constant of compound against Lactobacillus casei dihydrofolate reductase; set-up: species or system Lacticaseibacillus casei
# Sequence of Dihydrofolate reductase (Lactobacillus casei) (P00381 whole entry): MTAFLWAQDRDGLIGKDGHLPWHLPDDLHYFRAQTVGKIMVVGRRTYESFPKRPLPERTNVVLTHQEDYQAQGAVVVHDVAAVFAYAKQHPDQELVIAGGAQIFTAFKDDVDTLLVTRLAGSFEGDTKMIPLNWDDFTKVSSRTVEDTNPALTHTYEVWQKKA
# T1 sequence (P00381 whole entry): as above
SMILES,Ki (Dihydrofolate reductase [1]),pK [2],pK [3],Ki (Dihydrofolate reductase [4])
COc1cc(Cc2cnc(N)nc2N)cc(OCCCCCCC(=O)O)c1Br,0.6 nM,6.8,,
COc1cc(Cc2cnc(N)nc2N)cc(OCCCNCCC(=O)O)c1Br,,,6.71,5.3 nM
COc1cc(Cc2cnc(N)nc2N)cc(OC)c1Br [BRODIMOPRIM],,,6.8,11.3 nM
COc1cc(Cc2cnc(N)nc2N)cc(OCCC(=O)NCC(=O)O)c1Br,4.1 nM,6.71,,
COc1cc(Cc2cnc(N)nc2N)cc(OCCCCCC(=O)O)c1Br,0.4 nM,,,
COc1cc(Cc2cnc(N)nc2N)cc(OCCCC(=O)O)c1Br,0.9 nM,,,
COc1cc(Cc2cnc(N)nc2N)cc(OCCC(=O)NC(CCC(=O)O)C(=O)O)c1Br (stereo unspecified),1.7 nM,7.12,,
COc1cc(Cc2cnc(N)nc2N)cc(OCCCCC(=O)O)c1Br,0.2 nM,6.83,,
COc1cc(Cc2cnc(N)nc2N)cc(OCCCC(CCC(=O)O)C(=O)O)c1Br (stereo unspecified),< 0.01 nM,7.8,,
